Laboratory results taken from patent US9132140B2, “Boronic acid derivatives and therapeutic uses thereof” (Rempex Pharmaceuticals, Inc., priority 2013, dated 2015).
Where two headings read alike, the source gives them in different places.

Legend:
[1] = tested on: ECL1057 (NDM-1, TEM-1, CTX-M-15); assay type: cell-based, Enterobacter cloacae; details: ECL1057; alone
Text: (§1) Several strains simultaneously expressing both class A and class B carbapenemases, which were constructed using conjugation, were also included in the panel.

[2] = tested on: ECLM1015 (NDM, KPC); assay type: cell-based, Enterobacter cloacae; details: ECLM1015; alone
Text: as §1

[3] = tested on: ECLM1019 (VIM, KPC); assay type: cell-based, Enterobacter cloacae; details: ECLM1019; alone
Text: as §1

[4] = tested on: ECLM1016 (NDM, KPC); assay type: cell-based, Enterobacter cloacae; details: ECLM1016; alone
Text: as §1

[5] = tested on: ECL1082 (VIM-1); assay type: cell-based, Enterobacter cloacae; details: ECL1082; alone
Text: as §1

[6] = tested on: ECLM1014 (NDM, KPC); assay type: cell-based, Enterobacter cloacae; details: ECLM1014; alone
Text: as §1

[7] = tested on: ECLM1018 (VIM, KPC); assay type: cell-based, Enterobacter cloacae; details: ECLM1018; alone
Text: as §1

[8] = tested on: ECL1036 (KPC); assay type: cell-based, Enterobacter cloacae; details: ECL1036; alone
Text: as §1

[9] = tested on: ECL1055 (KPC); assay type: cell-based, Enterobacter cloacae; details: ECL1055; alone
Text: as §1

[10] = tested on: ECLM1017 (VIM, KPC); assay type: cell-based, Enterobacter cloacae; details: ECLM1017; alone
Text: as §1

[11] = tested on: ECL1045 (VIM-1); assay type: cell-based, Enterobacter cloacae; details: ECL1045; alone
Text: as §1

[12] = tested on: ECL1026 (KPC); assay type: cell-based, Enterobacter cloacae; details: ECL1026; alone
Text: as §1

[13] = tested on: ECLM1013 (NDM, KPC); assay type: cell-based, Enterobacter cloacae; details: ECLM1013; alone
Text: as §1

[14] = tested on: KP1087 (KPC-2, CTX-M-15, SHV-11, TEM-1); assay type: cell-based, Klebsiella pneumoniae; details: KP1087; alone
Text: (§2) The results are present in Table 6.
(§3) The results are present in Table 7.

[15] = tested on: KP1081 (NDM-1, TEM-1, SHV-11, CMY-6, CTX-M-15); assay type: cell-based, Klebsiella pneumoniae; details: KP1081; alone
Text: as §2, §3

[16] = tested on: EA1019 (SHV-5, VIM-1); assay type: cell-based, Enterobacter aerogenes; details: EA1019; alone
Text: as §1

[17] = tested on: EC1061 (NDM-1, CMY-6); assay type: cell-based, Escherichia coli; details: EC1061; alone
Text: as §1

[18] = tested on: EC1068 (VIM-1); assay type: cell-based, Escherichia coli; details: EC1068; alone
Text: as §1

[19] = tested on: EC1064 (NDM-1, CMY-6, CTX-M-15); assay type: cell-based, Escherichia coli; details: EC1064; alone
Text: as §1

[20] = tested on: EC1065 (IMP-1 CMY-2); assay type: cell-based, Escherichia coli; details: EC1065; alone
Text: as §1

[21] = tested on: KPM1344 (VIM-1); assay type: cell-based, Klebsiella pneumoniae; details: KPM1344; alone
Text: as §1

[22] = tested on: KP1098 (IMP-26 TEM SHV); assay type: cell-based, Klebsiella pneumoniae; details: KP1098; alone
Text: as §1

[23] = tested on: KPM1122 (NDM, VIM); assay type: cell-based, Klebsiella pneumoniae; details: KPM1122; alone
Text: as §1

[24] = tested on: KP1084 (KPC-3, SHV-11, TEM-1); assay type: cell-based, Klebsiella pneumoniae; details: KP1084; alone
Text: as §1

[25] = tested on: KP1064 (KPC TEM SHV); assay type: cell-based, Klebsiella pneumoniae; details: KP1064; alone
Text: as §1

[26] = tested on: KP1070 (KPC TEM SHV); assay type: cell-based, Klebsiella pneumoniae; details: KP1070; alone
Text: as §1

[27] = tested on: KP1097 (IMP-1 SHV); assay type: cell-based, Klebsiella pneumoniae; details: KP1097; alone
Text: as §1

[28] = tested on: KPM1347 (NDM-1 SHV CTX-M-15); assay type: cell-based, Klebsiella pneumoniae; details: KPM1347; alone
Text: as §1

[29] = tested on: KP1065 (VIM-1, SHV-11); assay type: cell-based, Klebsiella pneumoniae; details: KP1065; alone
Text: as §1

[30] = tested on: KP1059 (VIM-1, SHV-11); assay type: cell-based, Klebsiella pneumoniae; details: KP1059; alone
Text: as §1

[31] = tested on: KPM1123 (KPC-2 TEM SHV); assay type: cell-based, Klebsiella pneumoniae; details: KPM1123; alone
Text: as §1

[32] = tested on: KPM1346 (NDM-1 TEM SHV CTX-M-15 CMY); assay type: cell-based, Klebsiella pneumoniae; details: KPM1346; alone
Text: as §1

[33] = tested on: KPM1345 (VIM-1 SHV); assay type: cell-based, Klebsiella pneumoniae; details: KPM1345; alone
Text: as §1

[34] = tested on: KPM1097 (NDM, KPC); assay type: cell-based, Klebsiella pneumoniae; details: KPM1097; alone
Text: as §1

[35] = tested on: KP1061 (KPC TEM SHV); assay type: cell-based, Klebsiella pneumoniae; details: KP1061; alone
Text: as §1

[36] = tested on: KPM1110 (NDM, KPC); assay type: cell-based, Klebsiella pneumoniae; details: KPM1110; alone
Text: as §1

[37] = tested on: KPM1111 (NDM, KPC); assay type: cell-based, Klebsiella pneumoniae; details: KPM1111; alone
Text: as §1

[38] = tested on: KPM1109 (NDM, KPC); assay type: cell-based, Klebsiella pneumoniae; details: KPM1109; alone
Text: as §1

[39] = tested on: KP1004 (KPC TEM SHV); assay type: cell-based, Klebsiella pneumoniae; details: KP1004; alone
Text: as §1

[40] = tested on: KP1014 (Vim-1, TEM, SHV); assay type: cell-based, Klebsiella pneumoniae; details: KP1014; alone
Text: as §1

[41] = tested on: KP1081 (NDM-1, TEM-1, SHV-11, CMY-6, CTX-M-15); assay type: cell-based, Klebsiella pneumoniae; details: KP1081; alone; remark: listed apart in the source
Text: as §1

[42] = tested on: KPM1107 (NDM, KPC); assay type: cell-based, Klebsiella pneumoniae; details: KPM1107; alone
Text: as §1

[43] = tested on: KP1054 (VIM-1, SHV-11); assay type: cell-based, Klebsiella pneumoniae; details: KP1054; alone
Text: as §1

[44] = tested on: KPM1108 (NDM, KPC); assay type: cell-based, Klebsiella pneumoniae; details: KPM1108; alone
Text: as §1

[45] = tested on: KPM1099 (NDM, KPC); assay type: cell-based, Klebsiella pneumoniae; details: KPM1099; alone
Text: as §1

## C[C@@H](O)[C@H]1C(=O)N2C(C(=O)O)=C(S[C@@H]3CN[C@H](C(=O)N(C)C)C3)[C@H](C)[C@H]12 [Meropenem, reference compound]
[1]
  Carbapenem MIC alone: Z (MIC of greater than 10 μg/mL)
[2]
  Carbapenem MIC alone: Z (MIC of greater than 10 μg/mL)
[3]
  Carbapenem MIC alone: Z (MIC of greater than 10 μg/mL)
[4]
  Carbapenem MIC alone: Z (MIC of greater than 10 μg/mL)
[5]
  Carbapenem MIC alone: Y (MIC of 1 μg/mL to 10 μg/mL)
[6]
  Carbapenem MIC alone: Z (MIC of greater than 10 μg/mL)
[7]
  Carbapenem MIC alone: Z (MIC of greater than 10 μg/mL)
[8]
  Carbapenem MIC alone: Y (MIC of 1 μg/mL to 10 μg/mL)
[9]
  Carbapenem MIC alone: Y (MIC of 1 μg/mL to 10 μg/mL)
[10]
  Carbapenem MIC alone: Z (MIC of greater than 10 μg/mL)
[11]
  Carbapenem MIC alone: Y (MIC of 1 μg/mL to 10 μg/mL)
[12]
  Carbapenem MIC alone: Y (MIC of 1 μg/mL to 10 μg/mL)
[13]
  Carbapenem MIC alone: Z (MIC of greater than 10 μg/mL)
[14]
  Carbapenem MIC alone: Z (MIC of greater than 10 μg/mL)
[15]
  Carbapenem MIC alone: Z (MIC of greater than 10 μg/mL)
[16]
  Carbapenem MIC alone: Z (MIC of greater than 10 μg/mL)
[17]
  Carbapenem MIC alone: Z (MIC of greater than 10 μg/mL)
[18]
  Carbapenem MIC alone: Z (MIC of greater than 10 μg/mL)
[19]
  Carbapenem MIC alone: Z (MIC of greater than 10 μg/mL)
[20]
  Carbapenem MIC alone: Y (MIC of 1 μg/mL to 10 μg/mL)
[21]
  Carbapenem MIC alone: Z (MIC of greater than 10 μg/mL)
[22]
  Carbapenem MIC alone: Z (MIC of greater than 10 μg/mL)
[23]
  Carbapenem MIC alone: Z (MIC of greater than 10 μg/mL)
[24]
  Carbapenem MIC alone: Z (MIC of greater than 10 μg/mL)
[25]
  Carbapenem MIC alone: Z (MIC of greater than 10 μg/mL)
[26]
  Carbapenem MIC alone: Z (MIC of greater than 10 μg/mL)
[27]
  Carbapenem MIC alone: Z (MIC of greater than 10 μg/mL)
[28]
  Carbapenem MIC alone: Z (MIC of greater than 10 μg/mL)
[29]
  Carbapenem MIC alone: Y (MIC of 1 μg/mL to 10 μg/mL)
[30]
  Carbapenem MIC alone: Z (MIC of greater than 10 μg/mL)
[31]
  Carbapenem MIC alone: Z (MIC of greater than 10 μg/mL)
[32]
  Carbapenem MIC alone: Z (MIC of greater than 10 μg/mL)
[33]
  Carbapenem MIC alone: Y (MIC of 1 μg/mL to 10 μg/mL)
[34]
  Carbapenem MIC alone: Z (MIC of greater than 10 μg/mL)
[35]
  Carbapenem MIC alone: Y (MIC of 1 μg/mL to 10 μg/mL)
[36]
  Carbapenem MIC alone: Z (MIC of greater than 10 μg/mL)
[37]
  Carbapenem MIC alone: Z (MIC of greater than 10 μg/mL)
[38]
  Carbapenem MIC alone: Z (MIC of greater than 10 μg/mL)
[39]
  Carbapenem MIC alone: Z (MIC of greater than 10 μg/mL)
[40]
  Carbapenem MIC alone: Z (MIC of greater than 10 μg/mL)
[41]
  Carbapenem MIC alone: Z (MIC of greater than 10 μg/mL)
[42]
  Carbapenem MIC alone: Z (MIC of greater than 10 μg/mL)
[43]
  Carbapenem MIC alone: Z (MIC of greater than 10 μg/mL)
[44]
  Carbapenem MIC alone: Z (MIC of greater than 10 μg/mL)
[45]
  Carbapenem MIC alone: Z (MIC of greater than 10 μg/mL)
